Usually IC50 stands for the concentration that inhibits the measured activity by half.

Assay [1] relates to OVX rats having established osteopenia. The assay can be described thus: Treatment of OVX rats having established osteopenia, 26 weeks (Example 5B): BMD, total body fat. The assay is classed as in vivo, Sprague-Dawley rats. Particulars: treatment started 10 weeks after OVX, 26 weeks daily. As to the method: Height to nine month-old female Sprague-Dawley rats (Crl:CD(SD)Br) (Charles River Laboratory, St-Constant, Canada) were used in this experiment. The animals were acclimatized to the environmental conditions (temperature: 22±3° C.; humidity: 50±20%; 12-h light-12-h dark cycles, lights on at 07:15 h) for at least 1 week prior to the ovariectomy. Animals were bilaterally ovariectomized (OVX) under isoflurane anesthesia. Twenty animals were kept intact as control. The animals were housed individually and were allowed free access to tap water and a pelleted certified rodent feed (Lab Diet 5002, Ralston Purina, St-Louis, Mo.). Experiments were conducted in an animal facility approved by the Canadian Council on Animal Care (CCAC) and the Association for Assessment and Accreditation of Laboratory Animal Care (AAALAC) in accordance with the CCAC Guide for Care and Use of Experimental Animals.
Treatments were initiated 10 weeks after the ovariectomy and were performed once daily during 26 weeks. Animals not receiving a test article were treated with the appropriate vehicle alone during the same period.
Prior to the OVX, prior to the first day treatment (10 weeks after OVX) and after 26 weeks of treatment, individual rats under Isoflurane anesthesia had their whole body skeleton, lumbar spine and right femur scanned using dual energy x-ray absorptiometry (DEXA; QDR 4500A, Hologic, Waltham, Mass.) and a Regional High Resolution Scan software. The bone mineral density (BMD) of the lumbar spine (vertebrae L2 to L4), femur and the total body composition (fat percentage) were determined.

Assay [2] has as its system human Ishikawa cells. The assay can be described thus: Alkaline phosphatase activity in human endometrial adenocarcinoma Ishikawa cells. Type of assay: cell-based. The note with it: 5 days. As to the method: The human Ishikawa cell line derived from a well differentiated endometrial adenocarcinoma was kindly provided by Dr. Erlio Gurpide, The Mount Sinai Medical Center, New York, N.Y. The Ishikawa cells were routinely maintained in Eagle's Minimum Essential Medium (MEM) containing 5% (vol/vol) FBS (Fetal Bovine Serum) and supplemented with 100 U/ml penicillin, 100 μg/ml streptomycin, 0.1 mM non-essential amino acids solution. Cells were plated in Falcon T75 flasks at a density of 1.5×10^6 cells at 37° C.
Twenty four hours before the start of the experiment, the medium of near confluent Ishikawa cells was replaced by fresh estrogen-free basal medium (EFBM) consisting of a 1:1 (v:v) mixture of phenol red-free Ham's F-12 and Dulbecco's Modified Eagle's Medium (DMEM) supplemented with 100 U/mL penicillin, 100 μg/mL streptomycin, 2 mM glutamine, and 5% FBS treated twice with dextran-coated charcoal to remove endogenous steroids. Cells were then harvested by 0.1% pancreatin (Sigma) and 0.25 mM HEPES, resuspended in EFBM and plated in Falcon 96, well flat-bottomed microtiter plates at a density of 2.2×10^4 cells/well in a volume of 100 μl and allowed to adhere to the surface of the plates for 24 h. Thereafter, medium was replaced with fresh EFBM containing the indicated concentrations of compounds in a final volume of 200 μl. Cells were incubated for five days, with a medium change after 48 h.
At the end of the incubation period, microtiter plates were inverted and growth medium was decanted. The plates were rinsed with 200 μl by well of PBS (0.15M NaCl, 10 mM sodium phosphate, pH 7.4). PBS was then removed from the plates while carefully leaving some residual PBS, and the wash procedure was repeated once. The buffered saline was then decanted, and the inverted plates were blotted gently on a paper towel. Following replacement of the covers, the plates were placed at −80° C. for 15 min followed by thawing at room temperature for 10 min. […] Plates were monitored at 405 nm in an enzyme-linked immunosorbent assay plate reader (BIO-RAD, model 2550 EIA Reader).

Turning to `CC1=C(c2ccc(O)cc2)[C@H](c2ccc(OCCN3CCCCC3)cc2)Oc2cc(O)ccc21.Cl` [EM-652.HCl, (S)-(+)-7-hydroxy-3-(4′-hydroxyphenyl)-4-methyl-2-(4″-(2′″-piperidinoethoxy)phenyl)-2H-1-benzopyran hydrochloride], in assay [1], the “Femoral BMD” value is given as “completely prevented the further decrease”, the “Lumbar spine BMD” value is “completely prevented the further decrease” and the Total body fat result is on record as “prevented the 17% increase”. Besides, the “Maximal inhibition of 1 nM E2-induced stimulation of alkaline phosphatase” value in assay [2] (1 nM E2) is on record as 98.97 ± 0.174 (18). Moreover, in assay [2] (Homo sapiens, 120 h, 1 nM E2, read-out: Inhibition of 1 nM E2-induced stimulation of alkaline phosphatase IC50), the IC50 was found to be 1.52 ± 0.22 nM. Also, the Emax in assay [2] (Homo sapiens, 120 h, read-out: Maximal stimulation of alkaline phosphatase, % of 1 nM E2 stimulation) turned out to be 1.88 ± 0.26%.

The record behind these values is US20030040510A1, “Selective estrogen receptor modulators in combination with estrogens” (Endorecherche, Inc., priority 2000, published 2003).
